Source: patent US20260232681A1, “CRYSTALLINE FORMS OF N-[4-[4-(4-MORPHOLINYL)-7H-PYRROLO[2,3-D]PYRIMIDIN-6- YL]PHENYL]-4-[[3(R)-[(L-OXO-2-PROPEN-L-YL)AMINO]-L-PIPERIDINYL]METHYL]-2-PYRIDINECARBOXAMIDE AS A COVALENT INHIBITOR OF MENIN-MLL INTERACTION” (BIOMEA FUSION, INC., priority 2023, published 2026)
Read-outs that look alike come from different tables or passages of the source.

How the values were obtained:
[1] = system: type 2 diabetes mellitus adult subjects; assay: Clinical study in healthy and type 2 diabetes mellitus subjects (SAD, food effect, MAD; Example 111); assay type: in vivo, human
Procedure: In Experimental Phase 1 (SAD cohorts), 40 healthy adult subjects were randomized into 4 dose escalating cohorts of 10. In each cohort, subjects were randomized at 7:3 (active and placebo) in sequential order. Each cohort was composed of 2 sentinel subjects randomized at 1:1 (active and placebo), followed by 8 additional subjects randomized at 3:1 (active and placebo). Doses were 100 mg, 200 mg, 400 mg, and 600 mg.
In Experimental Phase 1 (3-period crossover, food effect study), each cohort of 12 healthy adult subjects was randomized at 1:1:1:1:1:1 in a 3-period crossover study with 6 treatment sequences.
In Experimental Phase 2 (MAD cohorts), 1 cohort of 16 healthy adult subjects was randomized at 3:1 (active and placebo), and 7 cohorts of type 2 diabetes mellitus adult subjects were randomized at 5:1 (active and placebo) to obtain safety and efficacy data to identify the potential optimal biological dose (OBD) and a recommended Phase 2 dose (RP2D). Doses were 100 mg, 200 mg, 400 mg, and 600 mg.

MM cell lines = assay: MM cell line proliferation (Cell Titer Glo, four days); assay type: cell-based
Procedure: (§1) Compound A was tested against a THL cell line (VAL), and a DEL cell line (U2932). An expanded panel of DHL cell lines were tested for sensitivity to Compound A. Ex vivo patient samples of THL and MYC-amplified DLBCL were tested with Compound A. Sensitivity of THL and MYC-driven DLBCL in both in vitro and ex vivo models were compared with clinical reversible menin inhibitors. Compound A was tested against a panel of MM cell lines and ex vivo MM patient samples of p53del, 13qdel, and relapsed/refractory cases.
(§2) DLBCL cell line TOLEDO was cultured in the presence of Compound A or clinical reversible menin inhibitors for six and fourteen hours. Menin protein expression was reduced up to 60% at 1 μM by Compound A after fourteen hours compared to clinical reversible inhibitors at <20% at similar concentrations. Menin protein expression was measured by the Wes system and analyzed using the Compass software (automated western blotting, Protein Simple). Signal was normalized to GAPDH and referenced to DMSO control (FIG. 171E). DLBCL and MM cell lines were cultured with Compound A, bortezomib (PS-341), or DMSO for four days and cell proliferation was measured by Cell Titer Glo. Ex vivo studies of DLBCL and MM models were conducted by measurement of cell proliferation (Cell Titer Glo) after six days of treatment with Compound A, PS-341, or DMSO control.

[2] = system: KRAS mutated cell lines (CRC, NSCLC, pancreatic); assay: KRAS mutant cell line proliferation (CellTiter-Glo, four days); assay type: cell-based, human; conditions: for GI50: Homo sapiens
Procedure: The inhibitory effect on cell proliferation was investigated in the human pancreas KRAS mutated cell lines MIA PaCa-2, HuP-T4, HPAF-II, human lung KRAS mutated cell line NCI-H358, and human colon KRAS mutated cell lines SW837, SW60, and NCI-H747. […] Cells were grown by adhering to culture flasks, and maintained at 70%-80% confluency.
ATP is present in all metabolically active cells and is considered as a marker for viable cells. […] The cell proliferation assay was performed using a 96-well plate format.
Eight concentrations of test compound were assessed in duplicate for each experimental run. 100% cell proliferation is represented by the untreated cells (0.2% DMSO).
200 μL of cell suspension were added to each well of a 96-well plate.
Cell viability was measured using CellTiterGlo. […] Cell viability was measured using CellTiter Glo.

[3] = system: DLBCL cell lines (DHL, THL, DEL, GCB); assay: DLBCL cell line proliferation (Cell Titer Glo, four days); assay type: cell-based
Procedure: as §1, §2

[4] = system: human pancreatic islet beta cells; assay: Beta cell proliferation in human islet microtissues (Examples 107, 110); assay type: cell-based
Procedure: Human islet microtissues were aggregated for 5 days and then released into ultra-low attachment plates. Half of the plates were maintained in standard culture medium (5.5 mM glucose), and half were cultured in high-glucose culture medium (GTX, 8 mM glucose) starting at Day 6, for the duration of the whole experiment. Starting on Day 9 (after 3 days of GTX pre-treatment for the relevant plates), dosing with compounds was initiated, using a Tecan D300e Digital Dispenser. DMSO was normalized by volume across all wells. Media were exchanged and compounds were redosed every 2-3 days throughout the experiment. Compound dosing was randomized; to avoid compound cross-contamination between wells, all medium exchanges were performed using 96-well deep well plates with pipette tip exchange.
FIG. 38 provides human pancreatic islet beta cell proliferation on Day 14 and Day 21. In FIG. 38, A is ATP content; B is proliferating beta cell fraction; and C is beta cell fraction. Upper graphs are standard media, and lower graphs are high glucose media. Data represents mean+−SEM of 1 donor with n=4-10 technical replicates. One-way ANOVA with Dunnet's posthoc test to DMSO control. * p<0.05; ** p<0.01; and *** p<0.001.
The ability of menin-MLL inhibitors to induce beta-cell (β-cell) proliferation is tested on human islet microtissue preparations (InSphero). Briefly, human islet microtissues are produced by enzymatic dissociation of the primary islet cells followed by controlled scaffold-free hanging-drop-based self-reaggregation of the islet cells (Misun et al., 2020, Adv. Biosyst. 2020, 4, 1900291). The process helps eliminate contaminating exocrine cells, while enabling homogenous and native-like distribution of endocrine cells within each islet microtissue. […]
Effects of the compound on beta cell function and proliferation were monitored following culturing of the islets in the presence or absence of compound for 1, 2 or 3 weeks. Proliferation of beta cells and is monitored via immunofluorescence staining for appropriate markers. […]

[5] = system: CLL samples isolated from patients; assay: Ex vivo CLL patient samples, antileukemic activity; assay type: cell-based, human; conditions: CLL ex vivo patient samples, 1 μM exposure

For C=CC(=O)N[C@@H]1CCCN(Cc2ccnc(C(=O)Nc3ccc(-c4cc5c(N6CCOCC6)ncnc5[nH]4)cc3)c2)C1 [Compound A, N-[4-[4-(4-morpholinyl)-7H-pyrrolo[2,3-d]pyrimidin-6-yl]phenyl]-4-[[3(R)-[(1-oxo-2-propen-1-yl)amino]-1-piperidinyl]methyl]-2-pyridinecarboxamide], the “episodes of symptomatic hypoglycemia” value ([1]; human patients) was “No episodes”, the “severe or serious TEAEs” value ([1]; human subjects) was “No severe or serious TEAEs” and the safety profile ([1]; human subjects, 4 weeks of treatment) was “well-tolerated”. For the same compound, the cell lethality (MM cell lines) was over 99%, the GI50 ([2]; column 1: KRAS G12C, NSCLC (8), read-out: KRAS G12C GI50) was 360 to 570 nM and the GI50 ([2]; column 5: RAS WT, Pancreatic (4), read-out: RAS WT GI50) was 430 to 830 nM. The GI50 ([2]; column 8: KRAS G12D, Pancreatic (1) (second set of heads), read-out: KRAS G12D GI50) was 370 to 570 nM, the “growth inhibition of KRAS-mutated cell lines compared to a known KRAS therapeutic” value ([2]; all cancer cell types tested) was “significantly greater growth inhibition” and the inhibition of growth ([2]; most of fourteen CRC, NSCLC and pancreatic KRAS mutated cell lines, four-day treatment) was over 90%. The cell lethality ([3]; DHL, THL, and DEL DLBCL cell lines, four days) was over 90%, the “growth inhibition of THL and DEL cell line models” value ([3]; VAL, U2932) was “complete growth inhibition” and the beta-cell proliferation ([4]; glucose stress condition (8 mM glucose)) was “dose dependent increase”. For the same compound, the “proliferating beta cell fraction” value ([4]; human islet microtissues, Day 14 and Day 21, compared to control) was “induced human pancreatic islet beta cells substantially”, the beta-cell proliferation ([4]; standard glucose conditions (5.5 mM glucose)) was “not under standard glucose conditions” and the cell lethality [5] was over 98%.
